Assay results taken from patent publication US20220289753A1, “SHP2 INHIBITORS” (IRBM S.P.A., priority 2019, published 2022).
Where two headings read alike, the source gives them in different places.

Key:
[1] = tested on: ERK phosphorylation in KYSE-520 cells; assay: Phospho-ERK cellular assay (Advanced phospho-ERK1/2 (Thr202/Tyr204) TR-FRET kit); type: cell-based; conditions: read-out: pERK IC50
In short: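 IC50 values are inflection points of four-parameter logistic fits of percent activity against compound dilution. Compound exposure lasted 2 h at 37° C in KYSE-520 cells. Lysates were probed overnight with Eu-cryptate/d2 antibodies to ERK1/2 phosphorylated at Thr202/Tyr204, so reduced TR-FRET indicates SHP2 inhibition.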

[2] = target: T1, SHP-2 enzyme (Met1-Leu525) (Homo sapiens, UniProt Q06124); assay: SHP2 inhibition enzymatic assay (DiFMUP substrate, IRS1 peptide activation); type: biochemical; conditions: SHP2 wt; activated by 500 nM IRS1 peptide; 75 μM DiFMUP substrate
T1 construct: synthetized by Origene, Met1-Leu525, cat #TP750155; purchased Origene TP750155
T1 sequence (Q06124 1-525): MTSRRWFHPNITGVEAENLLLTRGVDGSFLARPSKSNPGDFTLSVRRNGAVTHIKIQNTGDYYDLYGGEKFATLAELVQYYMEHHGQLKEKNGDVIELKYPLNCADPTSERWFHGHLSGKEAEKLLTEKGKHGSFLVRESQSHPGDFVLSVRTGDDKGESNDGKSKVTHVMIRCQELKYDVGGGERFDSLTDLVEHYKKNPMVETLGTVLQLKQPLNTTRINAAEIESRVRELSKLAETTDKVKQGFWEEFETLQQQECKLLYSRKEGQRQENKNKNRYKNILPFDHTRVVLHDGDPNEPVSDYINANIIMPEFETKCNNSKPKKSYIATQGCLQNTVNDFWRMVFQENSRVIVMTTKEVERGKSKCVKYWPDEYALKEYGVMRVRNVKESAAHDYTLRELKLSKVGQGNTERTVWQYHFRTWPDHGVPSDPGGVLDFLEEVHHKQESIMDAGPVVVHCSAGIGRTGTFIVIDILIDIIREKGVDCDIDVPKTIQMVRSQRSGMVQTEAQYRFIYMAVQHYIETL
In short: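 SHP-2 (Met1-Leu525, 0.5 nM final) preincubated 30 min with compounds and IRS1 activating peptide in HEPES pH 7.2 buffer with NaCl, KCl, EDTA, tween-20, 5 mM DTT. DiFMUP then added for 30 min at room temperature and fluorescence read. IC50 from four-parameter logistic fit of % inhibition.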

[3] = Homo sapiens, KYSE-520, 2 h, KYSE-520 cells, 2 h at 37° C., TR-FRET

Row | Compound | IC50 [1, 3] | IC50 [2] | IC50 ([1]; Homo sapiens, KYSE-520, 2 h) | IC50 ([1]; KYSE-520 cells, 2 h at 37° C., TR-FRET)
1 | N[C@@H]1c2ccccc2CC12CCN(c1nc3ncc(Sc4cccc5[nH]c(=O)oc45)nc3[nH]1)CC2 [Example 178, (S)-7-((2-(1-amino-1,3-dihydrospiro[indene-2,4′-piperidin]-1′-yl)-1H-imidazo[4,5-b]pyrazin-6-yl)thio)benzo[d]oxazol-2(3H)-one] | 1000 to 5000 nM | < 500 nM | – | –
2 | Cn1ncc2nccc(Sc3cnc4[nH]c(N5CCC6(CC5)Cc5ccccc5[C@H]6N)nc4n3)c21 [Example 261, (S)-1′-(5-((1-methyl-1H-pyrazolo[4,3-b]pyridin-7-yl)thio)-1H-imidazo[4,5-b]pyrazin-2-yl)-1,3-dihydrospiro[indene-2,4′-piperidin]-1-amine] | < 1000 nM | < 500 nM | – | –
3 | CNc1nccc(Sc2cnc3[nH]c(N4CCC5(CC4)Cc4ncccc4[C@H]5N)nc3n2)c1C(F)(F)F [Example 264, (5S)-1′-[5-[2-(methylamino)-3-(trifluoromethyl)pyridin-4-yl]sulfanyl-1H-imidazo[4,5-b]pyrazin-2-yl]spiro[5,7-dihydrocyclopenta[b]pyridine-6,4′-piperidine]-5-amine] | < 1000 nM | < 500 nM | – | –
4 | N[C@@H]1c2ccccc2CC12CCN(c1nc3nc(Sc4cc(Cl)nn5ccnc45)cnc3[nH]1)CC2 [Example 251, (S)-1′-(5-((6-chloroimidazo[1,2-b]pyridazin-8-yl)thio)-1H-imidazo[4,5-b]pyrazin-2-yl)-1,3-dihydrospiro[indene-2,4′-piperidin]-1-amine] | 1000 to 5000 nM | < 500 nM | – | –
5 | Nc1nccc(Sc2cnc3[nH]c(N4CCC5(CC4)Cc4ccc(N6CCOCC6)cc4[C@H]5N)nc3n2)c1Cl [Example 223, (S)-1′-(5-((2-amino-3-chloropyridin-4-yl)thio)-1H-imidazo[4,5-b]pyrazin-2-yl)-6-morpholino-1,3-dihydrospiro[indene-2,4′-piperidin]-1-amine] | > 5000 nM | < 500 nM | – | –
6 | Nc1nccc(Sc2cnc3[nH]c(N4CCC5(CC4)Cc4c(F)cccc4[C@H]5N)nc3n2)c1Cl [Example 206, (S)-1′-(5-((2-amino-3-chloropyridin-4-yl)thio)-1H-imidazo[4,5-b]pyrazin-2-yl)-4-fluoro-1,3-dihydrospiro[indene-2,4′-piperidin]-1-amine] | < 1000 nM | < 500 nM | – | –
7 | N[C@@H]1c2ncccc2OC12CCN(c1nc3nc(Sc4ccncc4Cl)cnc3[nH]1)CC2 [Example 163, (R)-1′-(5-((3-chloropyridin-4-yl)thio)-1H-imidazo[4,5-b]pyrazin-2-yl)-3H-spiro[furo[3,2-b]pyridine-2,4′-piperidin]-3-amine] | > 5000 nM | < 500 nM | – | –
8 | N[C@@H]1c2ccccc2CC12CCN(c1nc3nc(Sc4ccncc4Cl)cnc3[nH]1)CC2 [Example 148, (S)-1′-(5-((3-chloropyridin-4-yl)thio)-1H-imidazo[4,5-b]pyrazin-2-yl)-1,3-dihydrospiro[indene-2,4′-piperidin]-1-amine] | – | < 500 nM | < 1000 nM | –
9 | N[C@@H]1c2cccnc2CC12CCN(c1nc3nc(Sc4ccncc4Cl)cnc3[nH]1)CC2 [Example 150, (S)-1′-(5-((3-chloropyridin-4-yl)thio)-1H-imidazo[4,5-b]pyrazin-2-yl)-5,7-dihydrospiro[cyclopenta[b]pyridine-6,4′-piperidin]-5-amine] | 1000 to 5000 nM | < 500 nM | – | –
10 | N#CC1CN(c2nccc(Sc3cnc4[nH]c(N5CCC6(CC5)Cc5ccccc5[C@H]6N)nc4n3)c2Cl)C1 [Example 191, (S)-1-(4-((2-(1-amino-1,3-dihydrospiro[indene-2,4′-piperidin]-1′-yl)-1H-imidazo[4,5-b]pyrazin-5-yl)thio)-3-chloropyridin-2-yl)azetidine-3-carbonitrile] | < 1000 nM | < 500 nM | – | –
11 | N[C@@H]1c2cc(F)ccc2CC12CCN(c1nc3ncc(Sc4ccncc4F)nc3[nH]1)CC2 [Example 187, (S)-6-fluoro-1′-(6-((3-fluoropyridin-4-yl)thio)-1H-imidazo[4,5-b]pyrazin-2-yl)-1,3-dihydrospiro[indene-2,4′-piperidin]-1-amine] | < 1000 nM | < 500 nM | – | –
12 | N#Cc1ncccc1Sc1cnc2[nH]c(N3CCC4(CC3)Cc3ccccc3[C@H]4N)nc2n1 [Example 217, (S)-3-((2-(1-amino-1,3-dihydrospiro[indene-2,4′-piperidin]-1′-yl)-1H-imidazo[4,5-b]pyrazin-5-yl)thio)picolinonitrile] | < 1000 nM | < 500 nM | – | –
13 | N[C@@H]1c2cccc(F)c2CC12CCN(c1nc3nc(Sc4ccncc4Cl)cnc3[nH]1)CC2 [Example 207, (S)-1′-(5-((3-chloropyridin-4-yl)thio)-1H-imidazo[4,5-b]pyrazin-2-yl)-4-fluoro-1,3-dihydrospiro[indene-2,4′-piperidin]-1-amine] | 1000 to 5000 nM | < 500 nM | – | < 1000 nM
14 | N[C@@H]1c2ccccc2CC12CCN(c1nc3nc(Sc4ccnc5cccc(F)c45)cnc3[nH]1)CC2 [Example 218, (S)-1′-(5-((5-fluoroquinolin-4-yl)thio)-1H-imidazo[4,5-b]pyrazin-2-yl)-1,3-dihydrospiro[indene-2,4′-piperidin]-1-amine] | < 1000 nM | < 500 nM | – | –
15 | COc1cnccc1Sc1cnc2nc(N3CCC4(CC3)Cc3ccc(F)cc3[C@H]4N)[nH]c2n1 [Example 182] | < 1000 nM | < 500 nM | – | –
16 | Cc1nc2nc(N3CCC(C)(N)CC3)[nH]c2nc1Sc1cccc(Cl)c1Cl [Example 133, 1-(5-((2,3-dichlorophenyl)thio)-6-methyl-1H-imidazo[4,5-b]pyrazin-2-yl)-4-methylpiperidin-4-amine] | > 5000 nM | < 500 nM | – | –
17 | CN(C)c1nccc(Sc2cnc3[nH]c(N4CCC5(CC4)Cc4ncccc4[C@H]5N)nc3n2)c1Cl [Example 154, (S)-1′-(5-((3-chloro-2-(dimethylamino)pyridin-4-yl)thio)-1H-imidazo[4,5-b]pyrazin-2-yl)-5,7-dihydrospiro[cyclopenta[b]pyridine-6,4′-piperidin]-5-amine] | > 5000 nM | < 500 nM | – | –
18 | Nc1nccc(Sc2cnc3[nH]c(N4CCC5(CC4)Cc4cc(CO)ccc4[C@H]5N)nc3n2)c1Cl [Example 252, (S)-(1-amino-1′-(5-((2-amino-3-chloropyridin-4-yl)thio)-1H-imidazo[4,5-b]pyrazin-2-yl)-1,3-dihydrospiro[indene-2,4′-piperidin]-5-yl)methanol] | < 1000 nM | < 500 nM | – | –
19 | CC(=O)Nc1nccc(Sc2cnc3[nH]c(N4CCC5(CC4)Cc4ccccc4[C@H]5N)nc3n2)c1Cl [Example 147, (S)-N-(4-((2-(1-amino-1,3-dihydrospiro[indene-2,4′-piperidin]-1′-yl)-1H-imidazo[4,5-b]pyrazin-5-yl)thio)-3-chloropyridin-2-yl)acetamide] | < 1000 nM | < 500 nM | – | –
20 | CCNc1nccc(Sc2cnc3[nH]c(N4CCC5(CC4)Cc4ccccc4[C@H]5N)nc3n2)c1Cl [Example 246, (S)-1′-(5-((3-chloro-2-(ethylamino)pyridin-4-yl)thio)-1H-imidazo[4,5-b]pyrazin-2-yl)-1,3-dihydrospiro[indene-2,4′-piperidin]-1-amine] | > 5000 nM | < 500 nM | – | –
